{"source": "patent US11033559B2", "about": "“Leukocyte infiltration promoting agent and antitumor immunostimulatory agent” (OSAKA UNIVERSITY, priority 2015, dated 2021)", "type_in_all_cases": "in vivo", "key": {"[1]": {"system": "LLC tumor in mice", "test": "Changes in localization of immune cells in tumor (CD31, CD4, CD8 immunostaining)", "conditions": "tumor sections of Reference Example 1, LLC-bearing mice, 3 mg/kg i.p. for five days", "description": "LPA was administered to tumor-bearing mice generated by subcutaneous inoculation of a mouse cancer cell line, and changes in the localization of immune cells in the tumor were examined.\nThe tumor sections prepared in Reference Example 1 were immunostained with an anti-CD4 antibody and an anti-CD8 antibody. As a primary antibody, Purified Hamster Anti-PECAM-1 Antibody (Millipore), which is an anti-mouse CD31 antibody, PE-labeled Anti-mouse CD4 Antibody (Pharmingen) or FITC-labeled Anti-mouse CD8 Antibody (Pharmingen) was used. As a secondary antibody, Alexa Fluor 647-conjugated Anti-Armenian Hamster IgG was used. The immunostaining was performed in the same procedure as in Reference Example 1. The immunostained sections were observed and photographed under a confocal laser microscope (Leica)."}, "[2]": {"system": "tumor blood vessels in Lewis lung cancer (LLC) tumor-bearing mice", "test": "Structural changes in tumor blood vessels (anti-CD31 immunostaining) after administration of LPA or LPA derivative", "conditions": "3 mg/kg intraperitoneally once daily for five days, tumors harvested at 6 days, anti-CD31 staining", "description": "LPA or an LPA derivative was administered to tumor-bearing mice generated by subcutaneous inoculation of a mouse cancer cell line, and post-administration structural changes in tumor blood vessels were examined.\nLewis lung cancer cells (hereinafter called LLC cells) were used as the mouse cancer cell line. LLC cells (1×10^6 cells in 100 μL PBS per animal) were subcutaneously injected into C57BL/6 NCrSlc mice aged 8 weeks (females, SLC, Inc.).\nThe LPA used was 18:1 LPA (Avanti Polar Lipids, Inc.). The LPA derivative used was VPC31144S (N-{(1S)-2-hydroxy-1-[(phosphonooxy)methyl]ethyl} (9Z) octade c-9-enamide). A 10 mM LPA stock solution and a 10 mM VPC31144S stock solution were separately prepared using 50% ethanol and stored at −30° C. Before use, each of the frozen stock solutions was thawed and homogenized with an ultrasonic cleaner (SND Co., Ltd.) for 1 minute. The solution was diluted in PBS to an appropriate concentration for administration at a dose of 3 mg/kg in 100 μL PBS.\nOn day 9 post-inoculation, LLC-bearing mice that had developed a tumor with a volume of 60 to 80 mm^3 (volume=length×width×height×0.5) were selected and subjected to the experiment. The mice were assigned to three groups: a control group, an LPA group and a VPC31144S group. Each group consisted of three mice. […]"}, "[3]": {"system": "B16-BL6 mouse melanoma cell line", "test": "Tumor growth inhibition, subcutaneous tumor formed from melanoma cells", "conditions": "B16-BL6-bearing mice; LPA 3 mg/kg i.p. once daily for seven days; 5-FU 100 mg/kg i.p. once weekly, 2 times", "description": "LLC cells (1×10^6 cells in 100 μL PBS per animal) were subcutaneously injected into C57BL/6 NCrSlc mice aged 8 weeks (females) in the same manner as in Reference Example 1. An LPA solution for administration was prepared in the same manner as in Reference Example 1. 5-FU (Kyowa Hakko Kirin Co., Ltd.) was used as an anticancer drug. 5-FU was prepared as a solution in physiological saline (Otsuka Pharmaceutical Co., Ltd.). On day 7 post-inoculation, LLC-bearing mice that had developed a tumor with a volume of 30 to 50 mm^3 were selected and subjected to the experiment. The mice were assigned to three groups: a control group, a 5-FU group and an LPA group (n=3 per group). After grouping, LPA (3 mg/kg/100 μL), 5-FU (100 mg/kg/100 μL) or PBS (100 μL) was intraperitoneally administered to the mice. The administration of LPA or PBS was performed once daily for consecutive seven days. The administration of 5-FU was performed once weekly, 2 times in total (day 7 and day 14 post-inoculation). Tumor size was measured over time after the start of the administration. Tumor volume was calculated by the following formula: length×width×height×0.5.\nThe B16-BL6 mouse melanoma cell line was used. B16-BL6 cells (1×10^6 cells in […] PBS per animal) were subcutaneously injected into C57BL/6 NCrSlc mice aged 8 weeks (females). […]"}}, "data": [{"substance": "lysophosphatidic acid [LPA]", "values": [{"measurement": "continuity of tumor blood vessels (anti-CD31 staining)", "setting": "[1]", "value": "blood vessels were continuous"}, {"measurement": "localization of CD4-positive cells in the tumor", "setting": "[1]", "value": "CD4-positive cells were present even in the central part of the tumor"}, {"measurement": "localization of CD8-positive cells in the tumor", "setting": "[1]", "value": "CD8-positive cells were present in the whole tumor region"}, {"measurement": "network structure of tumor blood vessels", "setting": "[2]", "value": "continuous network structure of blood vessels"}, {"measurement": "inhibitory effect on growth of the tumor formed from melanoma cells", "setting": "[3]", "value": "comparable to that of 5-FU"}]}]}
